Measured values as given in US20230167088A1, “1-PYRAZINYLPYRAZOLYL-3-OXYALKYL ACIDS AND THEIR DERIVATIVES, AND THEIR USE FOR CONTROL OF UNDESIRED PLANT GROWTH” (BAYER AKTIENGESELLSCHAFT, priority 2020, published 2023).

Assays:
ECHCG [1] = experiment: Herbicidal post-emergence action 1b (twin sowing, 1280 g/ha); assay type: in vivo, Echinochloa crus-galli; settings: dosage 1280 g/ha, visual rating about 3 weeks after treatment
Protocol: (§1) [table] b) Seeds of mono- and dicotyledonous weed plants are placed in plastic pots in sandy loam soil (twin sowing with one species each of mono- or dicotyledonous weed plants per pot), covered with soil and cultivated in a greenhouse under controlled growth conditions. 2 to 3 weeks after sowing, the test plants are treated at the one-leaf stage. The compounds of the invention, formulated in the form of wettable powders (WP) or as emulsion concentrates (EC), are applied to the green parts of the plants as aqueous suspension or emulsion with addition of 0.5% additive at a water application rate equivalent to 600 litres per hectare. After the test plants have been kept in the greenhouse under optimum growth conditions for about 3 weeks, the activity of the preparations is rated visually in comparison to untreated controls. For example, 100% activity=the plants have died, 0% activity=like control plants. Tables A16 to A21 below show the effects of selected compounds of the general formula (I) according to Tables 1 and 2 on various harmful plants and at an application rate corresponding to 1280 g/ha, which were obtained by the experimental procedure mentioned above.

STEME = experiment: Herbicidal pre-emergence action 2b (doubly sown, 1280 g/ha); assay type: in vivo, Stellaria media; settings: doubly sown pots, dosage 1280 g/ha, visual scoring after about 3 weeks
Description: (§2) [table] b) Seeds of mono- and dicotyledonous weed plants are placed in plastic pots in sandy loam soil (doubly sown with one species each of mono- or dicotyledonous weed plants per pot) and covered with soil. The compounds of the invention, formulated in the form of wettable powders (WP) or as emulsion concentrates (EC), are then applied onto the surface of the covering soil as aqueous suspension or emulsion with addition of 0.5% additive at a water application rate equivalent to 600 litres per hectare. After the treatment, the pots are placed in a greenhouse and kept under good growth conditions for the trial plants. After about 3 weeks, the effect of the preparations is scored visually in comparison with untreated controls as percentages. For example, 100% activity=the plants have died, 0% activity=like control plants. Tables B16 to B21 below show the effects of selected compounds of the general formula (I) according to Tables 1 and 2 on various harmful plants and at an application rate corresponding to 1280 g/ha, which were obtained by the experimental procedure mentioned above.

MATIN [2] = experiment: Herbicidal post-emergence action 1b (twin sowing, 1280 g/ha); assay type: in vivo, Matricaria inodora; settings: dosage 1280 g/ha, visual rating about 3 weeks after treatment
Protocol: as §1

DIGSA [3] = experiment: Herbicidal pre-emergence action 2b (doubly sown, 1280 g/ha); assay type: in vivo, Digitaria sanguinalis; settings: doubly sown pots, dosage 1280 g/ha, visual scoring after about 3 weeks
Description: as §2

AMARE [4] = experiment: as above; assay type: in vivo, Amaranthus retroflexus; settings: doubly sown pots, dosage 1280 g/ha, visual scoring after about 3 weeks
Description: as §2

POAAN [5] = experiment: as above; assay type: in vivo, Poa annua; settings: doubly sown pots, dosage 1280 g/ha, visual scoring after about 3 weeks
Description: as §2

ECHCG [6] = experiment: as above; assay type: in vivo, Echinochloa crus-galli; settings: doubly sown pots, dosage 1280 g/ha, visual scoring after about 3 weeks
Description: as §2

POAAN [7] = experiment: Herbicidal post-emergence action 1b (twin sowing, 1280 g/ha); assay type: in vivo, Poa annua; settings: dosage 1280 g/ha, visual rating about 3 weeks after treatment
Protocol: as §1

DIGSA [8] = experiment: as above; assay type: in vivo, Digitaria sanguinalis; settings: dosage 1280 g/ha, visual rating about 3 weeks after treatment
Protocol: as §1

LOLRI [9] = experiment: Herbicidal post-emergence action 1a (greenhouse pots, visual rating); assay type: in vivo, Lolium rigidum; settings: Dosage 320 g/ha; rated visually about 3 weeks after treatment; 100% = plants have died, 0% = like control plants
Protocol: (§3) [table] a) Seeds of monocotyledonous and dicotyledonous weeds and crop plants are placed in sandy loam in plastic or organic plant pots, covered with soil and cultivated in a greenhouse under controlled growth conditions. 2 to 3 weeks after sowing, the test plants are treated at the one-leaf stage. The compounds of the invention, formulated in the form of wettable powders (WP) or as emulsion concentrates (EC), are then sprayed onto the green parts of the plants as aqueous suspension or emulsion with addition of 0.5% additive at a water application rate of 600 1/ha (converted). After the test plants have been kept in the greenhouse under optimum growth conditions for about 3 weeks, the activity of the preparations is rated visually in comparison to untreated controls. For example, 100% activity=the plants have died, 0% activity=like control plants. Tables A1 to A15 below show the effects of selected compounds of the general formula (I) according to Tables 1 and 2 on various harmful plants and an application rate corresponding to 320 g/ha and/or 80 g/ha, which were obtained by the experimental procedure mentioned above.

SETVI [10] = experiment: as above; assay type: in vivo, Setaria viridis; settings: rated visually about 3 weeks after treatment, 100% = plants have died, 0% = like control plants
Protocol: as §3

VERPE [11] = experiment: as above; assay type: in vivo, Veronica persica; settings: visual rating about 3 weeks after treatment
Protocol: as §3

AVEFA [12] = experiment: as above; assay type: in vivo, Avena fatua; settings: Dosage 320 g/ha; rated visually about 3 weeks after treatment; 100% = plants have died, 0% = like control plants
Protocol: as §3

AVEFA [13] = experiment: Herbicidal pre-emergence action 2a (greenhouse pots, visual scoring); assay type: in vivo, Avena fatua; settings: dosage 320 g/ha, visual scoring after about 3 weeks
Summary of the method: (§4)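 Visual percent rating, ~3 weeks after treatment, untreated pots as reference (0% = control-like, 100% = killed). Application: formulated compound on soil surface over seeds, 320 g/ha and/or 80 g/ha.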

VERPE [14] = experiment: as above; assay type: in vivo, Veronica persica; settings: dosage 320 g/ha, visual scoring after about 3 weeks vs untreated controls
Summary of the method: as §4

ABUTH = experiment: Herbicidal post-emergence action 1a (greenhouse pots, visual rating); assay type: in vivo, Abutilon theophrasti; settings: visual rating about 3 weeks after treatment
Protocol: as §3

ALOMY [15] = experiment: Herbicidal pre-emergence action 2a (greenhouse pots, visual scoring); assay type: in vivo, Alopecurus myosuroides; settings: dosage 320 g/ha, visual scoring after about 3 weeks
Summary of the method: as §4

SETVI [16] = experiment: as above; assay type: in vivo, Setaria viridis; settings: dosage 320 g/ha, visual scoring after about 3 weeks vs untreated controls
Description: (§5) [table] a) Seeds of monocotyledonous and dicotyledonous weed plants and crop plants are placed in plastic or organic plant pots and covered with soil. The compounds of the invention, formulated in the form of wettable powders (WP) or as emulsion concentrates (EC), are then applied onto the surface of the covering soil as aqueous suspension or emulsion with addition of 0.5% additive at a water application rate of 600 1/ha (converted). After the treatment, the pots are placed in a greenhouse and kept under good growth conditions for the trial plants. After about 3 weeks, the effect of the preparations is scored visually in comparison with untreated controls as percentages. For example, 100% activity=the plants have died, 0% activity=like control plants. Tables B1 to B15 below show the effects of selected compounds of the general formula (I) according to Tables 1 and 2 on various harmful plants and an application rate corresponding to 320 g/ha and/or 80 g/ha, which were obtained by the experimental procedure mentioned above.

ALOMY [17] = experiment: Herbicidal post-emergence action 1a (greenhouse pots, visual rating); assay type: in vivo, Alopecurus myosuroides; settings: rated visually about 3 weeks after treatment, 100% = plants have died, 0% = like control plants
Summary of the method: (§6)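 Visual scoring versus untreated plants (100% = plants dead, 0% = as control) followed roughly 3 weeks in the greenhouse after treatment. Plants grown in sandy loam pots had been sprayed on green parts at the one-leaf stage, 2–3 weeks post-sowing, with aqueous WP/EC preparations containing 0.5% additive, 600 l/ha, at 320 and/or 80 g/ha.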

POLCO [18] = experiment: as above; assay type: in vivo, Polygonum convolvulus; settings: visual rating about 3 weeks after treatment
Protocol: as §3

LOLRI [19] = experiment: Herbicidal pre-emergence action 2a (greenhouse pots, visual scoring); assay type: in vivo, Lolium rigidum; settings: dosage 320 g/ha, visual scoring after about 3 weeks vs untreated controls
Summary of the method: as §4

ECHCG [20] = experiment: Herbicidal post-emergence action 1a (greenhouse pots, visual rating); assay type: in vivo, Echinochloa crus-galli; settings: Dosage 320 g/ha; rated visually about 3 weeks after treatment; 100% = plants have died, 0% = like control plants
Protocol: as §3

POLCO [21] = experiment: Herbicidal pre-emergence action 2a (greenhouse pots, visual scoring); assay type: in vivo, Polygonum convolvulus; settings: dosage 320 g/ha, visual scoring after about 3 weeks vs untreated controls
Summary of the method: as §4

AMARE [22] = experiment: Herbicidal post-emergence action 1a (greenhouse pots, visual rating); assay type: in vivo, Amaranthus retroflexus; settings: dosage 320 g/ha, visual rating about 3 weeks after treatment
Summary of the method: as §6

MATIN [23] = experiment: Herbicidal pre-emergence action 2a (greenhouse pots, visual scoring); assay type: in vivo, Matricaria inodora; settings: dosage 320 g/ha, visual scoring after about 3 weeks vs untreated controls
Description: as §5

AMARE [24] = experiment: as above; assay type: in vivo, Amaranthus retroflexus; settings: dosage 320 g/ha, visual scoring after about 3 weeks vs untreated controls
Summary of the method: as §4

ECHCG [25] = experiment: as above; assay type: in vivo, Echinochloa crus-galli; settings: dosage 320 g/ha, visual scoring after about 3 weeks
Description: as §5

PHBPU = experiment: Herbicidal post-emergence action 1a (greenhouse pots, visual rating); assay type: in vivo, Pharbitis purpurea; settings: dosage 320 g/ha, visual rating about 3 weeks after treatment
Protocol: as §3

MATIN [26] = experiment: as above; assay type: in vivo, Matricaria inodora; settings: dosage 320 g/ha, visual rating about 3 weeks after treatment
Protocol: as §3

Compound | Pre-emergence action at 1280 g/ha against STEME in % (STEME) [%] | Pre-emergence action at 1280 g/ha against DIGSA in % (DIGSA [3]) [%] | Pre-emergence action at 1280 g/ha against AMARE in % (AMARE [4]) [%] | Pre-emergence action at 1280 g/ha against POAAN in % (POAAN [5]) [%] | Post-emergence action at 1280 g/ha against POAAN in % (POAAN [7]) [%] | Post-emergence action against LOLRI in % (LOLRI [9]) [%] | Post-emergence action against SETVI in % (SETVI [10]; Dosage 320 g/ha) [%] | Post-emergence action against VERPE in % (VERPE [11]; dosage 80 g/ha) [%] | Post-emergence action against VERPE in % (VERPE [11]; dosage 320 g/ha) [%] | Post-emergence action against AVEFA in % (AVEFA [12]) [%] | Post-emergence action against ABUTH in % (ABUTH; dosage 320 g/ha) [%] | Post-emergence action against ALOMY in % (ALOMY [17]; Dosage 320 g/ha) [%] | Post-emergence action against POLCO in % (POLCO [18]; dosage 320 g/ha) [%] | Pre-emergence action against LOLRI in % (LOLRI [19]) [%] | Post-emergence action against ECHCG in % (ECHCG [20]) [%] | Post-emergence action against AMARE in % (AMARE [22]) [%] | Pre-emergence action against MATIN in % (MATIN [23]) [%] | Pre-emergence action against ECHCG in % (ECHCG [25]) [%] | also measured
COC(=O)[C@H](C)Oc1nn(-c2cnccn2)c(-c2ccc(F)nc2)c1C#N [Example I-26] | 100 | 100 | 90 | 100 | 100 |  |  |  |  |  |  |  |  |  |  |  |  |  | Post-emergence action at 1280 g/ha against ECHCG in % (ECHCG [1]): 100%; Post-emergence action at 1280 g/ha against MATIN in % (MATIN [2]): 100%; Pre-emergence action at 1280 g/ha against ECHCG in % (ECHCG [6]): 100%
COC(=O)[C@@H](C)Oc1nn(-c2cnccn2)c(-c2ccnc(F)c2)c1C#N [Example I-35] | 100 | 90 | 90 | 100 | 100 |  |  |  |  |  |  |  |  |  |  |  |  |  | Post-emergence action at 1280 g/ha against DIGSA in % (DIGSA [8]): 90%
CCOC(=O)COc1nn(-c2cnccn2)c(-c2cncc(F)c2)c1Br [Example I-90] |  |  |  |  |  | 80 | 90 | 90 | 90 | 100 | 90 | 100 | 80 | 100 | 90 | 90 | 100 | 100 | Post-emergence action against SETVI in % (SETVI [10]; Dosage 80 g/ha): 80%; Pre-emergence action against AVEFA in % (AVEFA [13]): 100%; Pre-emergence action against VERPE in % (VERPE [14]): 100%; Post-emergence action against ABUTH in % (ABUTH; dosage 80 g/ha): 90%; Pre-emergence action against ALOMY in % (ALOMY [15]): 90%; Pre-emergence action against SETVI in % (SETVI [16]): 100%; Post-emergence action against ALOMY in % (ALOMY [17]; Dosage 80 g/ha): 80%; Post-emergence action against POLCO in % (POLCO [18]; dosage 80 g/ha): 80%; Pre-emergence action against POLCO in % (POLCO [21]): 100%; Pre-emergence action against AMARE in % (AMARE [24]): 100%
CCOC(=O)COc1nn(-c2cnccn2)c(-c2cncc(F)c2)c1F [Example I-94] |  |  |  |  |  | 90 | 90 | 90 | 90 | 80 | 90 | 80 | 80 | 90 | 90 | 80 | 90 | 100 | Post-emergence action against PHBPU in % (PHBPU): 100%; Post-emergence action against MATIN in % (MATIN [26]): 80%
